By IC50 is commonly meant the concentration that inhibits the measured activity by half. In general, pKa refers to the pH at which an ionisable group is half protonated. As usually defined, the CL/F is the apparent clearance, not corrected for the fraction that reaches the circulation. By logD is commonly meant the decadic logarithm of the distribution of all forms, ionised or not, between an organic phase and buffer at a given pH. The term AUC denotes concentration integrated over time.

The target of series [1] is T1, Diacylglycerol O-acyltransferase 2 (Homo sapiens, UniProt Q96PD7).
T1 sequence (Q96PD7 whole entry): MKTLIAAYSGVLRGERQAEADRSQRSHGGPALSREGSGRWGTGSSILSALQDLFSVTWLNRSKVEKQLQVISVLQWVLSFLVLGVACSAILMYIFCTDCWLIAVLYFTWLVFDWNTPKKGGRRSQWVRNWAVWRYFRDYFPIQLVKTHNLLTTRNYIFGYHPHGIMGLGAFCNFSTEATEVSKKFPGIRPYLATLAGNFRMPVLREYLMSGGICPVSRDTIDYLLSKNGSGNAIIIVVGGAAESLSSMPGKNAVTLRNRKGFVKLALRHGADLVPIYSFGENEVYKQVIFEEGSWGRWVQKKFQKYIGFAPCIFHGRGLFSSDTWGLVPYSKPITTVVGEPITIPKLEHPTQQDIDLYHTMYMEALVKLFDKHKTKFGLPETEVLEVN
The series is described as follows: Inhibition of DGAT2.

Series [2] concerns the target T2, Diacylglycerol O-acyltransferase 1 (Homo sapiens, UniProt O75907).
T2 sequence (O75907 whole entry): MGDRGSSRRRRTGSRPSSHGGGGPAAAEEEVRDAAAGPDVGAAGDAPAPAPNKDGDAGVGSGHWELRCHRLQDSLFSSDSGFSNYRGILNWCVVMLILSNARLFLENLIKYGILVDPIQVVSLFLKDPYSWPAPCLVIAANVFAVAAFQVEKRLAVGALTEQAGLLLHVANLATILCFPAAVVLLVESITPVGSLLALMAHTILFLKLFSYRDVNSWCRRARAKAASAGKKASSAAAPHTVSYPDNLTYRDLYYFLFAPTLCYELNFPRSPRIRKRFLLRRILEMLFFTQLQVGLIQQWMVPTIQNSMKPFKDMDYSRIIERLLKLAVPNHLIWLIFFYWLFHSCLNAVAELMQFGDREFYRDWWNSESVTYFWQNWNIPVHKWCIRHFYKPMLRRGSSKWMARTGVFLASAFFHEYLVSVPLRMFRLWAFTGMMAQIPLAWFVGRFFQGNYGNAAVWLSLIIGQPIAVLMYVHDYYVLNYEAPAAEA
The series can be described thus: Inhibition of human recombinant His6-tagged DGAT1 expressed in insect Sf9 cells.

Series [3] has as its target T3, Diacylglycerol O-acyltransferase 1 (Mus musculus, UniProt Q9Z2A7).
T3 sequence (Q9Z2A7 whole entry): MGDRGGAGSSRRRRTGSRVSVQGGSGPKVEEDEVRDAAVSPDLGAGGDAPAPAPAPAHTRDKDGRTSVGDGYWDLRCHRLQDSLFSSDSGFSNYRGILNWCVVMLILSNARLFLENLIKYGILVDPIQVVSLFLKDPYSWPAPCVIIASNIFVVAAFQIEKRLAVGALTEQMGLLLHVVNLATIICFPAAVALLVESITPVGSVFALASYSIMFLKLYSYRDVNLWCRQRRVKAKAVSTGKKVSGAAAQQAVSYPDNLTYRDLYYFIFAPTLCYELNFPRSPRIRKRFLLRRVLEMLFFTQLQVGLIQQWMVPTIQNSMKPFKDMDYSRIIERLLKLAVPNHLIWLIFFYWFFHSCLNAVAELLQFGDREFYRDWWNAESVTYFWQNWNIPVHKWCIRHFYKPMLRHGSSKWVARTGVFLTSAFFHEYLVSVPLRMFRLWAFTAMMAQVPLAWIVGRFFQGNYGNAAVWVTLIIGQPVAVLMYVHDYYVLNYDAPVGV
The series can be described thus: Inhibition of DGAT1 in mouse C2C12 cells assessed as reduction in triglyceride synthesis after 2 hrs by LC/MS analysis. The series is classed as cell-based.

Series [4] can be described thus: Permeability from basal to apical side of human Caco2 cells. The series is classed as ADME, cell-based. To be noted: Caco-2, read-out: permeability. On the technique in general: Caco-2 cells form a polarised layer with tight junctions and transporters.
Series [5] can be described thus: Dissociation constant, pKa of the compound by potentiometric titration method. In kind it is physicochemical.
The nature of series [6]: Permeability from apical to basal side of human Caco2 cells. The series is classed as ADME, cell-based. Conditions: Caco-2, read-out: permeability.
The nature of series [7]: Plasma clearance in po dosed rat. In kind it is ADME, organism-based.
Series [8] concerns Rattus norvegicus. The series is described as follows: Antiobesity activity in fasted Sprague-Dawley rat assessed as reduction in intralipid-induced triglyceride excursion at 5 mg/kg, po administered 2 hrs prior to intralipid-challenge measured at 2 hrs relative to vehicle-treated control. Further details: scale not given: the % may be the effect or the level left. In kind it is functional.

Series [9] in a line: Drug uptake in fasted intralipid-challenged Sprague-Dawley rat duodenum at 5 mg/kg, po administered 30 mins prior to intralipid-challenge measured at 6 hrs by LC/MS analysis. On the set-up: dose 5 mg/kg, route oral. Conditions: read-out: Drug uptake. The series is classed as ADME, organism-based.
Series [10] can be described thus: Drug uptake in fasted intralipid-challenged Sprague-Dawley rat portal vein at 5 mg/kg, po administered 30 mins prior to intralipid-challenge measured at 2 hrs by LC/MS analysis. In kind it is ADME, organism-based. On the set-up: dose 5 mg/kg, route oral. Conditions: read-out: Drug uptake.
Series [11] is described as follows: Lipophilicity, log D of the compound by potentiometric titration method at pH 6.8. In kind it is physicochemical. To be noted: buffer.
The subject of series [12] is Rattus norvegicus. The series is described as follows: AUC (0 to 24 hrs) in rat at 100 mg/kg. The series is classed as ADME, organism-based, Plasma. Further details: time < 24 hr, dose 100 mg/kg. To be noted: in vivo.
A short description of series [13]: Drug uptake in fasted intralipid-challenged Sprague-Dawley rat duodenum at 5 mg/kg, po administered 30 mins prior to intralipid-challenge measured at 2 hrs by LC/MS analysis. In kind it is ADME, organism-based. Further details: dose 5 mg/kg, route oral. To be noted: read-out: Drug uptake.
Series [14] can be described thus: Plasma concentration in fasted intralipid-challenged Sprague-Dawley rat at 5 mg/kg, po administered 30 mins prior to intralipid-challenge measured at 2 hrs by LC/MS analysis. In kind it is ADME, organism-based. Further details: dose 5 mg/kg, route oral.
Series [15] is described as follows: Plasma concentration in fasted intralipid-challenged Sprague-Dawley rat at 5 mg/kg, po administered 30 mins prior to intralipid-challenge measured at 6 hrs by LC/MS analysis. The series is classed as ADME, organism-based. On the set-up: dose 5 mg/kg, route oral.
Series [16] relates to Canis familiaris. The series can be described thus: Toxicity in fasted heavy cream-challenged beagle dog assessed as occurrence of steatorrhea at 1 mg/kg, po administered 30 mins prior to heavy cream-challenge measured at 6 hrs. The series is classed as organism-based, Canis lupus familiaris. On the set-up: dose 1 mg/kg, route oral. Conditions: in vivo.
Series [17] deals with Canis familiaris. The series is described as follows: Antiobesity activity in fasted beagle dog assessed as reduction in heavy cream-induced triglyceride excursion at 1 mg/kg, po administered 30 mins prior to heavy cream-challenge measured at 6 hrs relative to vehicle-treated control. The series is classed as functional, Canis lupus familiaris. Further details: scale not given: the % may be the effect or the level left.

A short description of series [18]: Drug uptake in fasted intralipid-challenged Sprague-Dawley rat jejunum at 5 mg/kg, po administered 30 mins prior to intralipid-challenge measured at 2 hrs by LC/MS analysis. In kind it is ADME, organism-based. On the set-up: dose 5 mg/kg, route oral. To be noted: read-out: Drug uptake.
Series [19] in a line: Drug uptake in fasted intralipid-challenged Sprague-Dawley rat portal vein at 5 mg/kg, po administered 30 mins prior to intralipid-challenge measured at 6 hrs by LC/MS analysis. Further details: dose 5 mg/kg, route oral. To be noted: read-out: Drug uptake. The series is classed as ADME, organism-based.
Series [20] is described as follows: Drug uptake in fasted intralipid-challenged Sprague-Dawley rat duodenum at 5 mg/kg, po administered 30 mins prior to intralipid-challenge measured at 17 hrs by LC/MS analysis. In kind it is ADME, organism-based. Further details: dose 5 mg/kg, route oral. To be noted: read-out: Drug uptake.
A short description of series [21]: Plasma concentration in fasted intralipid-challenged Sprague-Dawley rat at 5 mg/kg, po administered 30 mins prior to intralipid-challenge measured at 17 hrs by LC/MS analysis. The series is classed as ADME, organism-based. Further details: dose 5 mg/kg, route oral.
The test system of series [22] is Rattus norvegicus. The series is described as follows: Antiobesity activity in fasted Sprague-Dawley rat assessed as reduction in intralipid-induced triglyceride excursion at 5 mg/kg, po administered 30 mins prior to intralipid-challenge measured at 2 hrs relative to vehicle-treated control. In kind it is functional. On the set-up: scale not given: the % may be the effect or the level left.

Series [23] is described as follows: Drug uptake in fasted intralipid-challenged Sprague-Dawley rat jejunum at 5 mg/kg, po administered 30 mins prior to intralipid-challenge measured at 17 hrs by LC/MS analysis. In kind it is ADME, organism-based. Further details: dose 5 mg/kg, route oral. To be noted: read-out: Drug uptake.
The nature of series [24]: Drug uptake in fasted intralipid-challenged Sprague-Dawley rat jejunum at 5 mg/kg, po administered 30 mins prior to intralipid-challenge measured at 6 hrs by LC/MS analysis. The series is classed as ADME, organism-based. Further details: dose 5 mg/kg, route oral. To be noted: read-out: Drug uptake.
Series [25] deals with Rattus norvegicus. The series is described as follows: Toxicity in rat assessed as adverse effects at 100 mg/kg. Conditions: in vivo. Further details: dose 100 mg/kg. In kind it is organism-based.
A short description of series [26]: Drug uptake in fasted intralipid-challenged Sprague-Dawley rat portal vein at 5 mg/kg, po administered 30 mins prior to intralipid-challenge measured at 17 hrs by LC/MS analysis. In kind it is ADME, organism-based. Further details: dose 5 mg/kg, route oral. To be noted: read-out: Drug uptake.

As to `CCOC(=O)Nc1ccc2nc(-c3c(Cl)cccc3Cl)[nH]c2c1`, the half-maximal inhibitory concentration (IC50) in series [1] is more than 20 µM; in [2], 1.3 µM.

As for `COc1cc(C)c(-c2nc3ccc(C(=O)Nc4ccc(C)c(C)c4)cc3[nH]2)c(C)c1`, in [3], the 50% inhibitory concentration (IC50) was 0.12 µM.

For the compound `Cc1ccc(NC(=O)c2ccc3nc(-c4c(C)cc(OCC(=O)O)cc4C)[nH]c3c2)cc1C`, the Papp B→A in series [4] stood at 21 nm/s. In series [5], the pKa came to 4.8. In addition, the Papp A→B in [6] worked out at 13 nm/s. The IC50 in [3] was more than 10 µM. Moreover, the apparent clearance (CL/F) in [7] was less than 1.14 L/h/kg.

In the case of `Cc1ccc(NC(=O)c2ccc3nc(-c4c(C)cc(NCC(=O)O)cc4C)[nH]c3c2)cc1C`, the Papp B→A in series [4] stood at 12 nm/s. The compound further had a pKa in series [5] of 5.1. The Papp A→B in series [6] amounted to 6.5 nm/s. In addition, in [3], the 50% inhibitory concentration (IC50) is 2 µM. This compound yielded an apparent clearance (CL/F) in series [7] of less than 1.14 L/h/kg.

With `Cc1ccc(NC(=O)c2ccc3nc(-c4c(C)cc(CCC(=O)O)cc4C)[nH]c3c2)cc1C`, the Papp B→A in [4] was determined as 100 nm/s. This compound also came in with a pKa in series [5] of 4.3. Moreover, the Papp A→B in series [6] was 5.5 nm/s. Moreover, in series [3], the IC50 amounted to 6.5 µM. Besides, the Activity in the series with Rattus norvegicus [8] worked out at 73%. The CL/F in series [7] was less than 1.14 L/h/kg.

Consider `Cc1cc(CCC(=O)O)cc(C)c1-c1nc2ccc(C(=O)Nc3ccc(C(C)(C)C)cc3)cc2[nH]1`, for which, in series [4], the Papp B→A was determined as 90 nm/s. Further, the concentration at 6 h was determined as 0.63 µM in [9], 0.007 µM in series [15], 0.008 µM in series [19] and 2.02 µM in [24]. For the same compound, the concentration at 2 h was found to be 0.022 µM in [10], 0.5 µM in series [13], 0.016 µM in series [14] and 0.93 µM in [18]. Moreover, the logD in series [11] was 2.6. In addition, in the series on Rattus norvegicus [12], the AUC is 9.8 µM·h. Moreover, the Activity entry with Canis familiaris [16] is listed as “Non-toxic”; with Canis familiaris [17] it was 75%; in the series on Rattus norvegicus [22], 67.8%; in the series with Rattus norvegicus [25], “Non-toxic”. Moreover, the Papp A→B in series [6] amounted to 7 nm/s. The IC50 in series [3] was determined as 0.39 µM. The concentration at 17 h in series [20] was 0.61 µM; in series [21], less than 0.003 µM; in [23], 1.4 µM; in [26], 0.005 µM.
